# Entries after “also recorded” stand apart in the source; their conditions may differ.
# B1: fibromodulin (protein, UniProt Q06828 19-376, looked up)
# Fibromodulin: QYEDDPHWWFHYLRSQQSTYYDPYDPYPYETYEPYPYGVDEGPAYTYGSPSPPDPRDCPQECDCPPNFPTAMYCDNRNLKYLPFVPSRMKYVYFQNNQITSIQEGVFDNATGLLWIALHGNQITSDKVGRKVFSKLRHLERLYLDHNNLTRMPGPLPRSLRELHLDHNQISRVPNNALEGLENLTALYLQHNEIQEVGSSMRGLRSLILLDLSYNHLRKVPDGLPSALEQLYMEHNNVYTVPDSYFRGAPKLLYVRLSHNSLTNNGLASNTFNSSSLLELDLSYNQLQKIPPVNTNLENLYLQGNRINEFSISSFCTVVDVVNFSKLQVLRLDGNEIKRSAMPADAPLCLRLASLIEI
# B2: decorin (protein, UniProt P07585 31-359, looked up)
# Decorin: DEASGIGPEVPDDRDFEPSLGPVCPFRCQCHLRVVQCSDLGLDKVPKDLPPDTTLLDLQNNKITEIKDGDFKNLKNLHALILVNNKISKVSPGAFTPLVKLERLYLSKNQLKELPEKMPKTLQELRAHENEITKVRKVTFNGLNQMIVIELGTNPLKSSGIENGAFQGMKKLSYIRIADTNITSIPQGLPPSLTELHLDGNKISRVDAASLKGLNNLAKLGLSFNSISAVDNGSLANTPHLRELHLDNNKLTRVPGGLAEHKYIQVVYLHNNNISVVGSSDFCPPGHNTKKASYSGVSLFSNPVQYWEIQPSTFRCVYVRSAIQLGNYK
# Key:
# [1] = tested on: collagen monomers; details: literature / manuscript of the applicant's laboratory; cited from earlier work
# [2] = tested on: collagen fibril formation (collagen monomers, collagen type I / collagen type II); test: In vitro collagen fibrillogenesis assay (turbidity / light scattering); assay type: biochemical, bovine; details: for effect on collagen fibril formation (CFF): purified free CS chains added to collagen monomers (330 nM), pH 7.4, FIG. 2 panel A
# Protocol: Bovine pepsin-extracted collagen type I was purchased from Vitrogen. Collagen II was pepsin extracted from bovine tracheal cartilage, as previously described (Vogel, K. G., Paulsson, M., and Heinegård, D. (1984) Biochem. J. 223, 587-597). The fibrillogenesis assay has been previously described (Hedborn, E. and Heinegård, D. (1989) J. Biol. Chem. 264, 6898-6905).
# Briefly, a solution of collagen monomers (330 nM) was brought to neutral pH by addition of an appropriate volume of 0.012M NaOH, and buffered by 20 mM HEPES, 150 mM NaCl at pH 7.4. Perlecan fragment was added at concentrations equimolar to that of collagen or at one tenth the molar concentration of collagen. The sample was mixed vigorously and briefly, and transferred to a cuvette. The sample was incubated at 37° C. (collagen type I) or 35° C. (collagen type II) in water-jacketed cuvettes in the spectrophotometer, and the absorbance due to light scattering at 400 nm (collagen type I) or 313 nm (collagen type II) was monitored over a duration of 5-18 hrs. The increased absorbance/turbidity depends on increasing fibre formation.
# Fibrillogenesis was performed as described above. CS-E from squid was purchased from Calbiochem. 0.13 μg/ml corresponding to the molar concentration of GAG chains in previous experiments using recombinant perlecan domain I variants with HS/CS (PG IB) (33 nM).
Molecule,effect on formation of collagen fibres from monomers in vitro [1],concentration at which the stimulatory effect on fibril formation reaches saturation ([2]; FIG. 2 panel B),dose dependence of the stimulatory effect on collagen fibril formation ([2]; FIG. 2 panel B),effect on collagen fibril formation (CFF) [2]
cartilage oligomeric matrix protein [COMP],accelerates the formation of fibres from monomers,–,–,–
chondroitin sulphate E [CS-E],–,30 µg/mL,dose-dependent,effective in collagen fibril formation; also recorded: positive result on collagen fibril formation; also recorded: dramatic effects on fibril formation
"chondroitin-6 sulphate [CS-6, reference compound]",–,–,–,none of the other CS variants had any significant effect; also recorded: none of the other tested chondroitin sulphate variants (CS-D and CS-6) gives a positive result; also recorded: neither CS-6 nor CS-D had any effect
B1,slow down fibre formation in vitro,–,–,–
B2,slow down fibre formation in vitro,–,–,–

# From patent US7956047B2, “Use of chondroitin sulphate E (CS-E) for the treatment of diseases or conditions related to collagen fibril formation” (AnaMar AB, priority 2004, dated 2011)
